Experimental data from article PMC7957392, “Yeast translation elongation factor eEF3 promotes late stages of tRNA translocation” (The EMBO Journal, 2021).

Target: T1, eEF3 (C‐terminally TAP‐tagged, in native eEF3‐80S complex) (Saccharomyces cerevisiae, UniProt P16521)
T1 construct: gene YEF3; final 68 C-terminal residues including tag not modelled
T1 sequence (P16521 2-1044): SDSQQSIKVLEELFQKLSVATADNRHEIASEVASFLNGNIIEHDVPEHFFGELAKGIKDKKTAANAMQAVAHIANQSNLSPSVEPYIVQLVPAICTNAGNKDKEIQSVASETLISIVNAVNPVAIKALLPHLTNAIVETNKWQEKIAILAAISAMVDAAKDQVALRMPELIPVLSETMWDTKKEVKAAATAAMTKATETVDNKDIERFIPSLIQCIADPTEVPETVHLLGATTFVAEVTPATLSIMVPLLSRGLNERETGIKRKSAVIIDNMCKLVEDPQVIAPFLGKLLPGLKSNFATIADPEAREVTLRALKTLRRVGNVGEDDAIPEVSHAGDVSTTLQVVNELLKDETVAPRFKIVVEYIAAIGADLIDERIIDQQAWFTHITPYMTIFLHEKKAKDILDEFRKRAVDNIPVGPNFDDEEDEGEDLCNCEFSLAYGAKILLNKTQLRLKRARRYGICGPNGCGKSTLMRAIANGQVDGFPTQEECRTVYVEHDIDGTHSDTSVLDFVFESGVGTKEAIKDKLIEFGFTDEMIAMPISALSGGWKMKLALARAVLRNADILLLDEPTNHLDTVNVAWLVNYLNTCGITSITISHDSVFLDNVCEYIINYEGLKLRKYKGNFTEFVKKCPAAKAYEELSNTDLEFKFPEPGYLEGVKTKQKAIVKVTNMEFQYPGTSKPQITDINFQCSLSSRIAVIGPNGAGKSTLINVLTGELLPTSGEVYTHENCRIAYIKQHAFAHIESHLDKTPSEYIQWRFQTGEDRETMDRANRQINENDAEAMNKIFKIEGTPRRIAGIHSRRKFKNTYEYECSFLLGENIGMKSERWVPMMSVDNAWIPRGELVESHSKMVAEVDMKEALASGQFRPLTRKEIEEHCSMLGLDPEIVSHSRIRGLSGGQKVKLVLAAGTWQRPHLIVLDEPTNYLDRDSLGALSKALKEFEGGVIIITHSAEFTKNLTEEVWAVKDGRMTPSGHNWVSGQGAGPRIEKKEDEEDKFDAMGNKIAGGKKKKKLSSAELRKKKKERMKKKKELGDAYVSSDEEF
Test: cryo-EM structure of native eEF3-80S complex ([…] Å)
Settings: ABC1 and ABC2 nucleotide-binding sites; complex eluted with 1 mM ADPNP, pH 7.4, 10 mM Mg(OAc)2; density assigned by authors as ATP (or ADPNP), identity not resolved

Nc1ncnc2c1ncn2[C@@H]1O[C@H](COP(=O)(O)OP(=O)(O)NP(=O)(O)O)[C@@H](O)[C@H]1O [ADPNP]
cryo-EM structure of native eEF3-80S complex (3.3 Å): electron density consistent with ATP (or ADPNP) was observed in the active sites of ABC1
